Patent US20120315658A1, “AMELIORATION OF METABOLIC SYNDROME USING PHYSIOLOGICAL FUNCTIONS OF SPHINGOMYELIN SYNTHASE SMS2, OR SCREENING METHODS FOR AMELIORATING AGENTS” (Shionogi & Co., Ltd., priority 2009, published 2012)

System: ZS2/SMS2 cells
Assay: Me beta CD sensitivity test with Myriocin, viable cell number by WST-8
Format: cell-based, mouse
Conditions: for effect of added lipid on cell growth inhibitory effects caused by Myriocin: Myriocin + ceramide (10 microM) or sphingomyelin (15 microM)
Description: 1×10^6 MEF cells are washed, and resuspended in 1 ml of serum-free RPMI 1640 medium, and treated with an appropriate concentration of Me beta CD, and cultured in 5% CO2, 37 degrees Celsius for five minutes. After 2 ml of normal medium containing myriocin are added thereto, and the cells are cultured for additional 12 hours. A reagent for measuring viable cell number containing WST-8 (Nakalai Tesque) may be used to measure survival rate of the cells.
More specifically, ZS2/SMS2 cells prepared in Example 2 are placed in 48-well plate dish at 5000 cells/0.2 ml/well (N=3). For cell culture, 0.3% FCS/OPTIPRO SFM (GIBCO) was used. In this case, Myriocin (Final concentration 5 microM) is added, or alternatively, Myriocin+ceramide (10 microM) or Myriocin+sphingomyelin (15 microM) were added thereto. Me beta CD was added at the final concentration of 2 mM, and further cultured in 5% CO2, 37 degrees Celsius for sixteen hours. A reagent for measuring viable cell number containing WST-8 (DOJINDO) was added at 10 microliter/well and further cultured in 5% CO2, 37 degrees Celsius for one hour (WST assay). The viable cell numbers were counted according to the protocol. Y axis represents a numerical value when the average value is deemed to be 100% amongst the cases in the presence and absence of Myriocin, when Me beta CD is not placed therein.

CCCCCCC(=O)CCCCCC/C=C/C[C@@H](O)[C@H](O)[C@@](N)(CO)C(=O)O [Myriocin]
further reduction of cell growth by addition of Myriocin (2 mM Me beta CD, sixteen hours, Myriocin printed as 2 mM): about 20% | viable cell number, presence versus absence of Myriocin (Me beta CD not placed therein, Myriocin 5 microM): not significant difference

methyl-beta-cyclodextrin [Me beta CD]
reduction of cell growth by Me beta CD (2 mM Me beta CD, sixteen hours, no Myriocin): about 50%

sphingomyelin [SM]
effect of added lipid on cell growth inhibitory effects caused by Myriocin (2 mM Me beta CD): almost completely inhibited the cell growth inhibitory effects caused by Myriocin

ceramide
effect of added lipid on cell growth inhibitory effects caused by Myriocin (2 mM Me beta CD): almost completely inhibited the cell growth inhibitory effects caused by Myriocin
